Results reported in patent US4748177A, “Guanine derivatives” (Warner-Lambert Company, priority 1985, dated 1988).

Test system: T-cells
Test: standard test of selective cytotoxicity for T-cells in the presence of 2'-deoxyguanosine
Type: cell-based
Conditions: in the presence of 10 μM of 2'-deoxyguanosine
Procedure: […] activity was measured radiochemically by measuring the formation of [^14 -C]-hypoxanthine from [^14 -C]-inosine [Biomedicine, 33, 39 (1980)] using human erythrocyte as the enzyme source. The same compounds also were found by a standard test [Science, 214, 1137, (1981)] to be selectively cytotoxic for T-cells in the presence of 2'-deoxyguanosine at a similar concentration range. For example, 8-amino-9-[(4-methylphenyl)methyl]guanine is selectively cytotoxic to T-cells at a concentration of about 3.1 μM in the presence of 10 μM of 2'-deoxyguanosine. Similarly, 8-amino-9-[(4-methoxyphenyl)methyl]guanine is selectively cytotoxic to T-cells at concentration of about 1.1 μM in the presence of 10 μM of 2'-deoxyguanosine. On the other hand, these compounds were nontoxic to B-cells in the presence or absence of the same amount of 2'-deoxyguanosine. Since T-cells play a central role in immune response, use of the compounds of the invention is contemplated for the immunoregulation of rejection in transplantation and autoimmune disease such as rheumatoid arthritis, systemic lupus erythematosus, inflammatory bowel disease, cancer, juvenile diabetes, myasthenia gravis, multiple sclerosis, and viral diseases. […]

SMILES: COc1ccc(Cn2c(N)nc3c(=O)[nH]c(N)nc32)cc1 [8-amino-9-[(4-methoxyphenyl)methyl]guanine]
- concentration at which selectively cytotoxic to T-cells: about 1.1 μM

SMILES: Cc1ccc(Cn2c(N)nc3c(=O)[nH]c(N)nc32)cc1 [8-amino-9-[(4-methylphenyl)methyl]guanine]
- concentration at which selectively cytotoxic to T-cells: about 3.1 μM
